Tests used:
[1] = tested on: 133 protein kinases and 7 lipid kinases; assay: SelectScreen kinase profiling, whole panel; type: biochemical; conditions: 1 μM of 1938
Description: (§1) 133 protein kinases and 7 lipid kinases were counterscreened, with 1938 used at 1 μM, using the Adapta, Lantha and Z-LYTE assays (SelectScreen Kinase Profiling Service; Thermofisher – experimental details of these assays can be found here: https://www.thermofisher.com/uk/en/home/industrial/pharma-biopharma/drug-discovery-development/target-and-lead-identification-and-validation/kinasebiology/kinase-activity-assays.html. The tree represention in KinMap[59] generated courtesy of Cell Signaling Technology, Inc. (www.cellsignal.com). mTORC1 (mTOR/RAPTOR/LST8) protein complex and ATM kinase and substrates were produced as previously described[57],[60]. Screening of 1938 was conducted using SuperSep Phos-Tag 50 μmol/l 100 x 100 x 6.6 mm 17-well (192-18001/199-18011) gels. For ATM assays, 100 nM ATM was incubated for 30 min at 30°C with 5 μM GST-p53 and 1 mM ATP, in the absence or presence of 200 μM 1938 in ATM Kinase Buffer (50 mM HEPES pH 7.5, 100 mM NaCl, 10% glycerol, 2 mM […], 5 mM MgCl2). As a positive control for ATM activation, the same reaction was carried out with 100 nM ATM/5 μM GST-p53/1 mM ATP in the presence of 100 nM Mre11-Rad50-Nbs1 (MRN) complex, a known activator of ATM[61]. […] Gels were then stained using InstantBlue™ Coomassie, and quantified using BioRad Image Lab Software. […]

ATM = biological target: T1, ATM (Homo sapiens, UniProt Q13315); assay: ATM in vitro kinase assay (Phos-tag gel); type: biochemical; conditions: 200 μM 1938
T1 construct: made in house
Description: as §1

PI3Kα-WT MEFs = assay: Mass spectrometry-based phosphoproteomics, PI3Kα-WT MEFs; type: cell-based, mouse; conditions: for number of differentially phosphorylated peptides/sites relative to DMSO: 1938 5 μM or insulin 100 nM
Description: PI3Kα-WT and PI3Kα-KO MEFs, grown in 15 cm dishes, were serum-starved overnight in DMEM with 1% penicillin-streptomycin and stimulated by the addition of 0.05% DMSO, 5 μM 1938 in final 0.05% DMSO or 100 nM insulin (Sigma #I5016) for 15 min or 4 h. Cells were lysed in 500 μl urea lysis buffer [50 mM triethylammonium bicarbonate, 8 M urea, cOmplete™ EDTA-free protease inhibitor cocktail (1:50 dilution) (Roche #11873580001), 1 PhosSTOP tablet (Roche #4906845001) per 10 ml of lysis buffer, 1 mM sodium orthovanadate] and lysates sonicated until clear for ~10 min with cooling breaks on ice. Protein concentration was measured using a BCA protein assay (Pierce #23227). 300 μg of protein was reduced with 5 mM Tris(2-carboxyethyl)phosphine hydrochloride (Sigma #C4706) at 37°C for 20 min and alkylated using 10 mM 2-chloroacetamide (Sigma #22790) for 20 min at room temperature in the dark. Proteins were digested with LysC (#129-02541; FUJIFILM Wako Chemicals, Osaka, Japan) for 3.5 h at 30°C. Samples were then diluted with 50 mM triethylammonium bicarbonate (Sigma #T7408) to reduce the urea concentration to 1.5 M, followed by an overnight peptide digestion with trypsin (Promega #V5113) at 37°C. Digest reactions were quenched by the addition of 10% trifluoroacetic acid (EMD Millipore #302031-M) to a final pH of 2.0. Sample desalting was performed using 35-350 μg C18 columns (HMM S18V; The Nest Group, Inc., Southborough, MA, USA) according to the manufacturer’ specifications. TiO2 (Hichrome Titansphere TiO2, 10 μm capacity, 100 mg, GL Sciences #5020-75010) was used for phosphoenrichment. Following peptide loading onto TiO2, the beads were sequentially washed with 1 M glycolic acid (Sigma #124737)/80% acetonitrile/5% trifluoroacetic acid, followed by 80% acetonitrile/0.2% trifluoroacetic acid and 20% acetonitrile before elution with 5% ammonium hydroxide. Enriched samples were desalted using 7-70 μg C18 columns (HUM S18V; The Nest Group, Inc., Southborough, MA, USA) according to the manufacturer’s specifications. Dried phosphopeptide samples were stored at -80°C and resuspended in 10% formic acid immediately prior to analysis. nLC-MS/MS was performed on a Q-Exactive Orbitrap Plus interfaced to a NANOSPRAY FLEX ion source and coupled to an Easy-nLC 1000 (Thermo Scientific). Fifty percent of each sample was analysed as 10 μl injections. Peptides were separated on a 27 cm fused silica emitter, 75 μm diameter, packed in-house with Reprosil-Pur 200 C18-AQ, 2.4 μm resin (Dr. Maisch, Ammerbuch-Entringen, Germany) using a linear gradient from 5% to 30% acetonitrile/0.1% formic acid over 180 min, at a flow rate of 250 nl/min. Peptides were ionised by electrospray ionisation using 1.9 kV applied immediately prior to the analytical column via a microtee built into the nanospray source with the ion transfer tube heated to 320°C and the S-lens set to 60%. Precursor ions were measured in a data-dependent mode in the orbitrap analyser at a resolution of 70,000 and a target value of 3e6 ions. The ten most intense ions from each MS1 scan were isolated, fragmented in the HCD cell, and measured in the Orbitrap at a resolution of 17,500.
Raw data were analysed with MaxQuant[72] (version 1.5.5.1) where they were searched against the mouse UniProt database (http://www.uniprot.org/, downloaded 04/12/2018) using default settings. Carbamidomethylation of cysteines was set as fixed modification, and oxidation of methionines, acetylation at protein N-termini, phosphorylation (on S, T or Y) were set as variable modifications. Enzyme specificity was set to trypsin with maximally 2 missed cleavages allowed. To ensure high confidence identifications, peptide-spectral matches, peptides, and proteins were filtered at a less than 1% false discovery rate (FDR). Label-free quantification in MaxQuant was used with a LFQ minimum ratio count of 2, Fast LFQ selected and the ‘skip normalisation’ option selected. […]

T1 sequence (Q13315 whole entry): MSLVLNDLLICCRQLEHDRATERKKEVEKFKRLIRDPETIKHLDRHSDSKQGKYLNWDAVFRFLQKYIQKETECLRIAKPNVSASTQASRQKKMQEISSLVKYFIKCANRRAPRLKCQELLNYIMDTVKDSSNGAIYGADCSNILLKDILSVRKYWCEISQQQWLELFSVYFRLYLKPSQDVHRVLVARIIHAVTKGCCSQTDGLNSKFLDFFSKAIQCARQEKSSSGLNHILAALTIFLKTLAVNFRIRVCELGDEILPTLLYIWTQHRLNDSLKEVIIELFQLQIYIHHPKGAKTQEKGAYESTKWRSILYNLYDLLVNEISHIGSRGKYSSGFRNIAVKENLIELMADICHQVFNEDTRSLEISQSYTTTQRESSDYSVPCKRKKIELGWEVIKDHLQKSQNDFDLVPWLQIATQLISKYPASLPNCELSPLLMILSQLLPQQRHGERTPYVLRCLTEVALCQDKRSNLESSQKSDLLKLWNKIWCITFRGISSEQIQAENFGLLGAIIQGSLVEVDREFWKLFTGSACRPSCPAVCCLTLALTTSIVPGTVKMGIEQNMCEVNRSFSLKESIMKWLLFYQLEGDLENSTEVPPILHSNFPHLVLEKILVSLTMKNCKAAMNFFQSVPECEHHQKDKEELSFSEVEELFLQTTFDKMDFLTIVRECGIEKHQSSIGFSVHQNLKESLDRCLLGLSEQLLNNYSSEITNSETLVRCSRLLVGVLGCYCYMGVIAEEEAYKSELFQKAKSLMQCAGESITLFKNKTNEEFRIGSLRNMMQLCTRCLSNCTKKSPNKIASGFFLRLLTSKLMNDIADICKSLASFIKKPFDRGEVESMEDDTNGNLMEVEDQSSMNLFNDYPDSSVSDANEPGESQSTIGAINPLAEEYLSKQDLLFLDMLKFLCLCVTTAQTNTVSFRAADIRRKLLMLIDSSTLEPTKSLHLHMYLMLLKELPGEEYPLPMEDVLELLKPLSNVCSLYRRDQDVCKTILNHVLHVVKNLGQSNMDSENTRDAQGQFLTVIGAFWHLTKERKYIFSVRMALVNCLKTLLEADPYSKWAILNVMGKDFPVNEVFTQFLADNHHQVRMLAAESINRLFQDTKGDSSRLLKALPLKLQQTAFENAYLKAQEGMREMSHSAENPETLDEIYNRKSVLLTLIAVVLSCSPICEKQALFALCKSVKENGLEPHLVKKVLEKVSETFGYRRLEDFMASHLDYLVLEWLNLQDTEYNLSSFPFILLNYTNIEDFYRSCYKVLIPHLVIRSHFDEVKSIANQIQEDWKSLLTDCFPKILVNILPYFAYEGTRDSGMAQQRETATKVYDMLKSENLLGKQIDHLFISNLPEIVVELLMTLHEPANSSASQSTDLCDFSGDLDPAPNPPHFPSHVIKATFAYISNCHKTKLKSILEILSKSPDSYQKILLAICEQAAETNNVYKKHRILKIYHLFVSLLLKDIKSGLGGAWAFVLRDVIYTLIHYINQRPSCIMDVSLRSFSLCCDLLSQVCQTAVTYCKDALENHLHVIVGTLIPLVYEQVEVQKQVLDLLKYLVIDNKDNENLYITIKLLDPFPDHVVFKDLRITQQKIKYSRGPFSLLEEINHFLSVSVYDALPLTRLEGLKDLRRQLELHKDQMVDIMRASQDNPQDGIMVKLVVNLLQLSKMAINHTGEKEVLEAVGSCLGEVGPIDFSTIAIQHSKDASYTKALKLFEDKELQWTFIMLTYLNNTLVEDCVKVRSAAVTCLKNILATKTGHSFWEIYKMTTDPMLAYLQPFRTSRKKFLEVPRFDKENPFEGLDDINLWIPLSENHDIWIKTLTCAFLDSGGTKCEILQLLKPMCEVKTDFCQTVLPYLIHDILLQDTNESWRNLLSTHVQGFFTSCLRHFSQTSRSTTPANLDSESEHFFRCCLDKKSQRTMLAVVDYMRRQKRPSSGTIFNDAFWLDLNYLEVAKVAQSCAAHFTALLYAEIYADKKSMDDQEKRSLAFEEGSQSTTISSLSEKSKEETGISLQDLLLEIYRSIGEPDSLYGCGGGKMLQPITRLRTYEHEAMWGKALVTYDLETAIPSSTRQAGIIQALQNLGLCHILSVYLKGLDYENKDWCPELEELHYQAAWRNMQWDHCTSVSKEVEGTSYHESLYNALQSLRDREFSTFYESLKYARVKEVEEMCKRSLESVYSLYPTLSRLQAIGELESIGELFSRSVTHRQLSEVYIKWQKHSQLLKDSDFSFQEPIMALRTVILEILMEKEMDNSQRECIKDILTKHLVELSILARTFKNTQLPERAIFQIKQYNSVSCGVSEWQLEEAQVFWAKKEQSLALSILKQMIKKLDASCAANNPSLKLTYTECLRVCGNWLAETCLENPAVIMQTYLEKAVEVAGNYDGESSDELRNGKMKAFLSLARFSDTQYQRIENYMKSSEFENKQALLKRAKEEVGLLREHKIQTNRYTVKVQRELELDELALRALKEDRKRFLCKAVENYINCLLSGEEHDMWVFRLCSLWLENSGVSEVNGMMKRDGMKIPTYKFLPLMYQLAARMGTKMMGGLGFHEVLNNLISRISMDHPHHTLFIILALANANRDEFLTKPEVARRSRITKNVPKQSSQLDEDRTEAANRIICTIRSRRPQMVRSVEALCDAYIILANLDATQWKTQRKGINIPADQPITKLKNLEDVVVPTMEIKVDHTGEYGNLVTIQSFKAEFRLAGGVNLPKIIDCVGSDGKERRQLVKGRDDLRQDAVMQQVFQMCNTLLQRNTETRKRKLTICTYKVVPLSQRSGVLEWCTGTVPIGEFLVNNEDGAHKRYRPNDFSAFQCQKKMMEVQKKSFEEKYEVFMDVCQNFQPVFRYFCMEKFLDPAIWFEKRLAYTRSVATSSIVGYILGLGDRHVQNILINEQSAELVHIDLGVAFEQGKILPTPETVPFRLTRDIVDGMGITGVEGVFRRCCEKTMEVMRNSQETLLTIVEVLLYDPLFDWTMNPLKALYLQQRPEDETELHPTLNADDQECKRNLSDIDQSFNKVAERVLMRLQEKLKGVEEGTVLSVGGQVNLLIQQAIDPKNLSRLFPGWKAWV

Row | Compound | effect on PI3Kβ, PI3Kγ, PI3Kδ, PI3K-C2α, Vps34, PI4Kβ, mTOR and DNA-PK [1] | inhibition of 13 protein kinases of the panel [1] | effect on ATM activity (ATM) | number of differentially phosphorylated peptides/sites relative to DMSO (PI3Kα-WT MEFs; 15 min) | number of differentially phosphorylated peptides/sites relative to DMSO (PI3Kα-WT MEFs; 4h) | log2FC, PI3Ka WT 4 h 1938 vs PI3Ka WT DMSO (PI3Kα-WT MEFs; phosphosite Cask_S544) | log2FC, PI3Ka WT 15’ 1938 vs PI3Ka WT DMSO (PI3Kα-WT MEFs; phosphosite Cask_S545) | log2FC, PI3Ka WT 4 h 1938 vs PI3Ka WT DMSO (PI3Kα-WT MEFs; phosphosite Cask_S545) | log2FC, PI3Ka WT 15’ 1938 vs PI3Ka WT DMSO (PI3Kα-WT MEFs; phosphosite Gm42715_S1683) | log2FC, PI3Ka WT 4 h 1938 vs PI3Ka WT DMSO (PI3Kα-WT MEFs; phosphosite Gm42715_S1683) | log2FC, PI3Ka WT 15’ Insulin vs PI3Ka WT DMSO (PI3Kα-WT MEFs; phosphosite Cask_S545) | log2FC, PI3Ka WT 4 h Insulin vs PI3Ka WT DMSO (PI3Kα-WT MEFs; phosphosite Cask_S545) | log2FC, PI3Ka WT 15’ Insulin vs PI3Ka WT DMSO (PI3Kα-WT MEFs; phosphosite Gm42715_S1683) | log2FC, PI3Ka WT 4 h Insulin vs PI3Ka WT DMSO (PI3Kα-WT MEFs; phosphosite Gm42715_S1683)
1 | CCN1CCN(c2ccc(Nc3cc(Nc4cccc5c4N(C(C)=O)CC5)ccn3)cc2)CC1 [Compound 1938] | did not affect the activity | 25-50% | did not affect the activity | 27 | 50 | Inf | -0.1674 | -0.01008 | 1.032 | 0.9181 | – | – | – | –
2 | insulin: insulin, canonical activator of PI3Kα, used as positive control | – | – | – | 11 | 18 | – | – | – | – | – | -0.06497 | -0.07238 | 0.5546 | 1.083

Source: publication PMC7614683, “A small molecule PI3Kα activator for cardioprotection and neuroregeneration” (Nature, 2023)
